Counter-ions that a name gives are not always drawn.
Tests used:
[1] = molecular target: T1, human chemokine receptor CCR-3 (Homo sapiens, UniProt P51677); experiment: CCR-3 receptor binding assay, 125Jodine-eotaxin-1 Scintillation Proximity Assay (SPA)
T1 construct: expressed in transfected cells; host or cells: K562 cells (clone hCCR-3-C1), membranes
T1 sequence (P51677 1-355): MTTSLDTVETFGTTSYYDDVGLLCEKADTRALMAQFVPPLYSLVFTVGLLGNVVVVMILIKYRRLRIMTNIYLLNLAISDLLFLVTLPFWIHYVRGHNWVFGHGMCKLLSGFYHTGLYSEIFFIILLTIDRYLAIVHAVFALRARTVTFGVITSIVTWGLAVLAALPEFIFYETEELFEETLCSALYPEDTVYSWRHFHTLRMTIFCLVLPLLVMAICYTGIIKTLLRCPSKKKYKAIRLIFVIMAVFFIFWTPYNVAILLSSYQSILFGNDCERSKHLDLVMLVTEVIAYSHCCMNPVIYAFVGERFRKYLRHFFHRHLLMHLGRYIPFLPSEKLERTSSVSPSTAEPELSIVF
Procedure: The CCR-3 receptor binding test is based on a K562 cell line (leukemia myelogenic blast cells) transfected with the human chemokine receptor CCR-3 (hCCR-3-C1). The cell membranes were prepared by disrupting the hCCR-3 transfected K562 cells by […] and centrifugation at 40000 g, 4° C. for 1 h. The membranes were re-suspended in the SPA incubation buffer without bovine serum albumin for storage in aliquots at −80° C.
The CCR-3 receptor binding assay with the radioligand ^125Jodine-eotaxin-1 was performed in a Scintillation Proximity Assay (SPA) design. Cell membranes of hCCR-3 C1 cells were diluted in suitable concentrations (0.5-5 ug protein/well) in 96 well microtiter plates (1450-401, Wallac).
The test incubation mixture comprising 60 μl of the membrane suspension, 80 μl of the Wheat Germ Agglutinin coated PVT beads (organic scintillator, Amersham Pharmacia biotech) in a concentration of 0.4 mg and 40 μl of radiolabelled ^125J rhEotaxin (Amersham, IM290) were incubated with 20 μl of the test compound (dissolved in DMSO dilutions) for 2 hours. The SPA incubation buffer contained 25 mM HEPES, 25 mM MgCl2 6×H2O, 1 mM CaCl2 2×H2O and 0.1% bovine serum albumin. Included were controls for specific binding (no displacer added) and non-specific binding by adding unlabelled rhEotaxin (R&D Systems) or a test compound. Bound radioactivity was determined by scintillation counter (Micro Beta “Trilux”, Wallac). Determination of affinity of test compounds (dissociation constant Ki) was calculated by iterative fitting of experimental data using the law of mass action based program “easy sys” (Schittkowski, Num Math 68, 129-142 (1994)).

Structure (SMILES) | melting point | Ki [1]
CCc1nc2cc(F)ccc2n1C1CC2CCC(C1)N2CCCSc1ccc(F)cc1 (centres unmarked) (as salt: HCl) [Example 10, 2-Ethyl-5-fluoro-1-{8-[3-(4-fluoro-phenylsulfanyl)-propyl]-8-aza-bicyclo[3.2.1]oct-3-yl}-1H-benzoimidazole] | 127 to 128 °C | 
CCc1nc2cc(F)ccc2n1C1CC2CCC(C1)N2CCCSc1ccc(F)cc1 (centres unmarked) [Example 10, 2-Ethyl-5-fluoro-1-{8-[3-(4-fluoro-phenylsulfanyl)-propyl]-8-aza-bicyclo[3.2.1]oct-3-yl}-1H-benzoimidazole] |  | 0.0065 µM
Cc1nc2cc(F)ccc2n1C1CC2CCC(C1)N2CCCSc1ccc(F)cc1 (centres unmarked) (as salt: HCl) [Example 11, 5-Fluoro-1-{8-[3-(4-fluoro-phenylsulfanyl)-propyl]-8-aza-bicyclo[3.2.1]oct-3-yl}-2-methyl-1H-benzoimidazole] | 240 to 241 °C | 
Cc1nc2cc(F)ccc2n1C1CC2CCC(C1)N2CCCSc1ccc(F)cc1 (centres unmarked) [Example 11, 5-Fluoro-1-{8-[3-(4-fluoro-phenylsulfanyl)-propyl]-8-aza-bicyclo[3.2.1]oct-3-yl}-2-methyl-1H-benzoimidazole] |  | 0.014 µM
Fc1ccc(SCCCN2C3CCC2CC(n2c(C4CC4)nc4cc(F)ccc42)C3)cc1 (centres unmarked) [Example 9, 2-Cyclopropyl-5-fluoro-1-{8-[3-(4-fluoro-phenylsulfanyl)-propyl]-8-aza-bicyclo[3.2.1]oct-3-yl}1H-benzoimidazole] |  | 0.01 µM

Source: patent publication US20050014782A1, “Novel n-(heterobicycloalkanes)-substituted indoles-or heteroderivatives thereof” (Boehringer Ingelheim International GmbH, priority 2003, published 2005)
